This note sets out measurements from PubChem BioAssay AID2423 (Broad Institute, 2010).

Usually EC50 stands for the concentration that produces a half-maximal response.

Records with an inconclusive call do not appear. Calls of active or inactive are those of the source. No rule for the calls is given here. Some results are limits rather than exact numbers.

For this experiment, the system named is C. albicans CaCi-8 + fluconazole, Alamar Blue growth, 48 h. The experiment in a line: resistant C. albicans growth inhibition with fluconazole, dose response, CaCi-8 strain, Alamar Blue fluorescence (AID 2423).

As for `COc1cccc(C(=O)NNC(=O)c2ccccc2Br)c1`, the EC50 is > 15 µM (inactive).
For the compound `Cc1c(CCOC(=O)CC23CC4CC(CC(C4)C2)C3)sc[n+]1Cc1ccccc1`, the EC50 was 10.6 µM.
The result for `COc1ccccc1/C=C1\SC(=S)N(NS(=O)(=O)c2ccccc2)C1=O` reads 1.11 µM; that for `Nc1nnnn1/N=C/c1cccc(Oc2ccccc2)c1`, 3.45 µM.
Consider `Oc1cccc(Nc2ncnc3c2oc2ccccc23)c1`, for which the EC50 is 6.65 µM.
`CCCc1ccc(C2C3=C(CC(C)(C)CC3=O)NC3=C2C(=O)c2ccccc23)cc1` (stereo not drawn): the EC50 was 1.79 µM.
With `Cc1ccc(NCc2ccc(O)c3ncccc23)cc1C`, the EC50 is 13.4 µM.
Regarding `Cn1c(SCC(=O)N2CCCc3ccccc32)nnc1-c1ccccc1`, the EC50 is > 16 µM (inactive).
For `Cc1ccc(C(=O)CC(=O)c2ccc(C(C)(C)C)cc2)cc1`, the EC50 was 6.22 µM.
On to `Cc1ccc(-n2[nH]c(C)c(/C=N/NC(=O)c3ccc([N+](=O)[O-])cc3)c2=O)c(C)c1`, for which the EC50 is 3.53 µM.
With `CC(Oc1cc2oc(=O)c3c(c2cc1Cl)CCCC3)C(=O)NCc1ccncc1` (stereo not drawn), the EC50 was 6.61 µM.
Turning to `O=C(Cn1c2ccc(F)cc2c2nc3n(c(=O)c21)CCS3)N1CCCC1`, the EC50 is > 16 µM (inactive).
Regarding `CCCCCn1c(=O)c(C(=O)NCc2ccncc2)c(O)c2ccccc21`, the EC50 was 1.72 µM.
As for `S=C(Nc1ccc(Cl)cc1)c1nc2ccccc2[nH]1`, the concentration for a half-maximal effect (EC50) is 1.64 µM.
As for `CCn1c(C)nc2cc(C(=O)NNC(=S)Nc3ccc(Cl)cc3Cl)ccc21`, the EC50 was 0.99 µM.
Then `CNC(=O)COC(=O)c1c2c(nc3ccccc13)CCC2`, with > 16 µM (inactive); and `COCCCN1C(=O)C(=O)/C(=C(/O)c2ccc(OCC(C)C)cc2C)C1c1cccnc1` (stereo not drawn), with > 15 µM (inactive); and `O=C(N/N=C/c1ccncc1)c1cc2ccccc2cc1O`, with > 15 µM (inactive).
The result for `CSC(=S)NCc1cccnc1` reads > 16 µM (inactive).
`O=C(CN1CCN(S(=O)(=O)c2ccccc2)CC1)Nc1ccc2c(c1)CCC2`: the EC50 is 10.5 µM.
Turning to `CC(C)[C@H]1C(=O)O[C@H](C(C)C)C(=O)N(C)[C@@H](C(C)C)C(=O)O[C@H](C(C)C)C(=O)N(C)[C@@H](C(C)C)C(=O)O[C@H](C(C)C)C(=O)N1C`, the EC50 is > 15 µM (inactive).
As to `C/C(=N\N1C(=O)CSC1=S)c1ccc(Br)cc1`, the EC50 is 11.9 µM.
Take `COc1ccc(-c2nnc(NC(=O)c3ccc(S(=O)(=O)N4CCc5ccccc5C4)cc3)o2)cc1`: the EC50 is 0.747 µM.
The result for `CCN1/C(=C/C=C/c2oc3ccc(-c4ccccc4)cc3[n+]2CC)Oc2ccc(-c3ccccc3)cc21` reads 0.589 µM.
Regarding `Cc1ccc(Sc2ncccc2C(=O)NCc2cc([N+](=O)[O-])ccc2O)c(C)c1`, the EC50 was > 15 µM (inactive).
Take `COc1ccc(C)cc1Nc1n[n+](-c2ccccc2)c(-c2ccc(N(C)C)cc2)s1`: the EC50 was 3.71 µM.
As to `O=C(N/N=C(\c1ccccc1)c1ccccn1)c1cccc([N+](=O)[O-])c1`, the EC50 was 5.31 µM.
With `Cc1cccc(Cc2nnc(CCC(=O)N3CCCCC3c3nccs3)o2)c1` (stereo not drawn), the EC50 is > 16 µM (inactive).
On to `CCCC(=O)NC(c1ccc(OC)cc1)c1ccc2cccnc2c1O` (stereo not drawn), for which the EC50 was 0.893 µM.
As for `Cc1noc(NC(=O)c2ccc(Cl)c(Cl)c2)c1Cl`, the EC50 was > 15 µM (inactive).
For the compound `CC(C)CCNC(=O)C(c1ccco1)N(Cc1ccc(F)cc1)C(=O)c1snc(C(N)=O)c1N` (stereo not drawn), the EC50 is 15.8 µM.
On to `COc1ccc(C(=O)NC(=S)NNC(=O)c2ccccc2C)cc1`, for which the EC50 was 1.99 µM.
On to `Oc1ccc(N=Nc2ccc3c(c2)OCCO3)c2cccnc12`, for which the EC50 is 0.804 µM.
For `COCc1cc(CN2CCN(C)CC2)c(O)c2ncccc12`, the EC50 is 6.66 µM.
`Cc1nc(NS(=O)(=O)c2ccc(Br)cc2)c2c3c(sc2n1)CCC3`: the EC50 was > 16 µM (inactive).
Then `O=[N+]([O-])c1cccc(-c2cc(-c3cc(Br)ccc3O)[nH]n2)c1`, with 0.866 µM; and `CCOc1ccc(CN(C(=O)c2oc3ccccc3c2C)C2CCS(=O)(=O)C2)cc1` (stereo not drawn), with > 16 µM (inactive).
The result for `Cc1[nH]n(-c2cccc3ccccc23)c(=O)c1/C=N/NC(=O)c1cccc([N+](=O)[O-])c1` reads 3.27 µM.
Take `COc1cccc(/C=N/NC(=O)c2nc(-c3ccccc3)cc(-c3ccccc3)n2)c1O`: the EC50 was 1.76 µM.
The result for `O=C(Nc1cccc(-c2cn3ccccc3n2)c1)c1cccc(Cl)c1` reads 0.715 µM; that for `COc1ccc(-c2cc(=O)oc3cc(OC(=O)C4CCCCC4)c(Cl)cc23)cc1`, 1.12 µM.
As for `Cc1ccc([N+](=O)[O-])cc1-c1[nH]c(-c2ccc(O)c(O)c2)nc1-c1ccccc1`, the EC50 is > 15 µM (inactive).
Regarding `COc1cc(NC(=O)c2ccccc2NS(=O)(=O)c2ccc(Cl)s2)cc(OC)c1`, the EC50 is > 16 µM (inactive).
Take `Cc1c(Cc2ccccc2)c(=O)oc2c(O)c(O)ccc12`: the EC50 is 2.75 µM.
As to `O=C(O)c1ccc(NC(=S)NC(=O)c2ccc(-c3ccccc3)cc2)cc1`, the EC50 is 3.35 µM.
The result for `N/C(Cc1ccccc1)=N\OC(=O)c1cccc2ccccc12` reads 1.4 µM; that for `CNC1=C(N(C(C)=O)c2ccc(Br)cc2)C(=O)c2ccccc2C1=O`, 0.19 µM.
In the case of `CCn1nc(/C=C/c2ccccc2)nc2c(=O)n(C)c(=O)nc1-2`, the EC50 is 0.323 µM.
`O=[N+]([O-])c1ccc2c(c1)[nH]c(=S)n2-c1ccccc1`: the EC50 was 0.648 µM.
Then `O=C(NC1CCCCC1)c1cc([N+](=O)[O-])[nH]n1`, with 1.12 µM.
As for `O=[N+]([O-])c1cc(Br)c(O)c(/C=N/Nc2nnnn2-c2cccc3ccccc23)c1`, the EC50 is > 15 µM (inactive).
On to `O=C(CCN1CCN(c2ccccc2)CC1)N/N=C/c1ccc(O)c(O)c1O`, for which the EC50 was 4.02 µM.
As to `CC(=O)c1c(C)nc(-c2cccc([N+](=O)[O-])c2)n1O`, the EC50 was 3.29 µM.
For `C[n+]1c2n(c3ccccc31)N=C(c1ccc(-c3ccccc3)cc1)CS2`, the EC50 is 1.88 µM.
The result for `Oc1ccc(N=Nc2nccs2)c(O)c1` reads 7.25 µM; that for `Cc1ccc2cc(C3C(C#N)=C(N)Oc4c3ccc3cccnc43)c(=O)[nH]c2c1` (stereo not drawn), 1.9 µM.
Consider `O=C(COc1ccccc1)NNC(=S)NC(=O)c1ccc(Cl)cc1Cl`, for which the EC50 is 4.84 µM.
Then `N#C/C(=N\Nc1cccc([N+](=O)[O-])c1)C(=O)c1ccc(Br)cc1`, with 5.56 µM; and `Cc1ccc(S(=O)(=O)N(C)c2ccc(OCC(=O)Nc3nnc(C4CC4)s3)cc2)cc1`, with 0.708 µM; and `Cc1cccc(C2CC3(CC(C)(C)NC(=S)N3)Oc3cc(O)ccc32)c1` (stereo not drawn), with 3.97 µM.
With `Cn1c(=O)n(CC#N)c2ccccc21`, the EC50 was 14.8 µM.
On to `COC(=O)c1c(-c2cccs2)csc1NC(=O)c1cccnc1`, for which the EC50 was 1.29 µM.
The result for `COc1cc(C(Nc2ccccn2)c2ccc3ccc(C)nc3c2O)cc(OC)c1O` (stereo not drawn) reads 2.02 µM; that for `Cc1cc(C)n(-c2nc(SCCN(C)C)c3c4c(sc3n2)CCCC4)n1`, 6.43 µM.
As to `O=C(NCc1ccccc1)C1c2ccccc2Oc2ccccc21`, the EC50 was 6.03 µM.
With `O=[N+]([O-])c1ccc(N/N=C/c2ccc(O)c(O)c2O)c(S(=O)(=O)N2CCOCC2)c1`, the EC50 is 8.26 µM.
For `O=C(Oc1c(CN2CCOCC2)cc(Cl)c2cccnc12)c1ccccc1`, the EC50 is 2.65 µM.
Regarding `CSc1nc(Cl)c(C#N)c(-c2ccc(C)cc2)n1`, the EC50 is 2.84 µM.
Consider `N#CC1CC(c2ccccc2)=NN1c1ccccc1[N+](=O)[O-]` (stereo not drawn), for which the EC50 was 0.404 µM.
On to `COc1ccc(/C=C(/NC(=O)c2ccccc2)c2nc3ccc(Cl)cc3[nH]2)cc1OC`, for which the EC50 was 2.66 µM.
As for `Cc1ccc2c(c1)c(/C=C/c1cc[n+](C)cc1)c(C)n2C`, the EC50 is > 16 µM (inactive).
As to `O=C(N/N=C/c1c(O)ccc2ccccc12)c1cccc(C(F)(F)F)c1`, the EC50 is 0.242 µM.
On to `Cc1ccc(NC(=O)NNC(=O)c2cc3ccccc3cc2O)c(C)c1`, for which the EC50 is > 15 µM (inactive).
The result for `CN1CCN(C(c2ccc(C(F)(F)F)cc2)c2ccc3cccnc3c2O)CC1` (stereo not drawn) reads 0.883 µM; that for `O=[N+]([O-])c1ccc(C(=Nc2cccc3ccccc23)N2CCOCC2)cc1`, 1.35 µM.
Turning to `CC[C@@H]1C=CC=CC[C@H](C)[C@@H](O)[C@@H](C)C(=O)[C@H](C)[C@@H](O)[C@H](C)C(=O)[C@H](C)[C@@H](O)[C@H](C)C=CC(=O)O[C@H]2[C@@H](C)[C@@H](CC1)O[C@@]1(CC[C@@H](C)[C@@H](C[C@H](C)O)O1)[C@@H]2C`, the EC50 was 0.654 µM.
In the case of `O=C(CCS(=O)(=O)c1ccc(F)cc1)Nc1nc(-c2ccncc2)cs1`, the EC50 is 1.49 µM.
With `O=C(NNC1=C(C(=O)C(F)(F)F)CCC1)c1ccc(Cl)cc1`, the EC50 was 1.04 µM.
Take `O=C(NC(Cc1ccccc1)C(=O)NCc1ccccn1)c1ccco1` (stereo not drawn): the EC50 is > 15 µM (inactive).
Then `CC(C)(C)C1CCC(OC(=O)C[N+]2(C)CCCCC2)CC1` (stereo not drawn), with 11.3 µM; and `CN(C(=O)CSc1nnc(-c2ccco2)o1)C1CCCCC1`, with 13.2 µM.
On to `CC(C)(C)CC(=O)Nc1nnc(C(F)(F)F)s1`, for which the EC50 was > 16 µM (inactive).
On to `O=C(c1ccco1)N1CCN(c2ncnc3c(-c4ccccc4)nsc23)CC1`, for which the EC50 is 1.26 µM.
In the case of `CCOC(=O)c1cnc(-n2cc(C)cn2)nc1Nc1ccccc1OCC`, the EC50 was 12.5 µM.
With `CC(C)(C)c1ccc(Cc2n[nH]c(=S)[nH]c2=O)cc1`, the EC50 is 0.351 µM.
Regarding `COc1ccc(C(=O)NC(=S)NNC(=O)c2ccc3ccccc3n2)cc1`, the 50% effective concentration (EC50) is 0.583 µM.
Turning to `O=[N+]([O-])c1ccc(N2CCN(Cc3ccc([N+](=O)[O-])o3)CC2)cc1`, the EC50 is 1.65 µM.
The result for `CCCC(=O)NC(c1ccccc1OC)c1ccc2cccnc2c1O` (stereo not drawn) reads 1.03 µM.
With `Cc1cccc(NC(=S)NNC(=O)c2cc3c(s2)CCC(C)C3)c1C` (stereo not drawn), the EC50 was 1.37 µM.
`COCCNC(=O)C(c1ccc(C)o1)N(CCOC)C(=O)Cn1nnc2ccccc21` (stereo not drawn): the EC50 is > 15 µM (inactive).
Then `Cc1ccc(C2C3CSCC=C3C(C#N)=C(N)C2(C#N)C#N)cc1` (stereo not drawn), with 16.3 µM.
In the case of `O=[N+]([O-])c1cc(O)c2ncccc2c1`, the EC50 is 0.763 µM.
For the compound `COc1ccc(C(=O)Nc2ccccc2C(=O)Nc2ccccc2C(=O)O)cc1`, the EC50 is 7.54 µM.
